The record followed here is patent publication US11311520B2, “Substituted dihydroimidazopyridinediones as MKNK1 and MKNK2 inhibitors” (Bayer Pharma Aktiengesellschaft, priority 2017, dated 2022).

The target in this test is human full-length MKNK1 (Homo sapiens (Human), UniProt Q9BUB5, T344D). The test can be described thus: MKNK1 kinase high ATP assay (TR-FRET). The class given is biochemical. Particulars: 2 mM ATP, 15 min preincubation with enzyme, GST-MKNK1 (T344D). The method, boiled down:
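GST-tagged full-length human MKNK1 (1-424, T344D, baculovirus-expressed) preincubated 15 min at 22 °C with compound, then reacted 30 min at 22 °C with 2 mM ATP and 0.06 μM biotinylated peptide (final) in HEPES pH 7.5. Phospho-substrate by TR-FRET (665/622 nm ratio), normalised to no-inhibitor and no-enzyme controls.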
In general terms: Time-resolved FRET reads energy transfer from a long-lived donor to a nearby acceptor.

Molecules are shown by their SMILES.

Chain of human full-length MKNK1 (Q9BUB5 other isoform, or with tags, fused parts or gaps T344D): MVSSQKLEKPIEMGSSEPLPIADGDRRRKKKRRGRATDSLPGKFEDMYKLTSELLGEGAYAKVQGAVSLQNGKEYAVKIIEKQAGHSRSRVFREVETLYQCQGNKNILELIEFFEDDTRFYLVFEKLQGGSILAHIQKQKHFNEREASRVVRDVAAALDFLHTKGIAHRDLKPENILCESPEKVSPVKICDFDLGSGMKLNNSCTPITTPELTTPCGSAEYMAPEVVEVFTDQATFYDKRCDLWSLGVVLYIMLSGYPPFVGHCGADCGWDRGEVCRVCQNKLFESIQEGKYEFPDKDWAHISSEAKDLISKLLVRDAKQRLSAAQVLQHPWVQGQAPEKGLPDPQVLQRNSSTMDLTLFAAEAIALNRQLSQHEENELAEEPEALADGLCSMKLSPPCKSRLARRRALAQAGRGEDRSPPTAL

`Cc1cc(Nc2ncnc3ccc(Cl)cc23)c(=O)n2c1C(=O)NC21CSC1` [Example 175, 6-[(6-chloroquinazolin-4-yl)amino]-8-methyl-2H-spiro[imidazo[1,5-a]pyridine-3,3′-thietane]-1,5-dione]: it took 0.0144 µM to reach half-maximal inhibition (IC50).
Regarding `Cc1cc(Nc2ncnc3[nH]ccc23)c(=O)n2c1C(=O)NC21CCC(F)(F)CC1` [Example 90, 4,4-Difluoro-8′-methyl-6′-(7H-pyrrolo[2,3-d]pyrimidin-4-ylamino)-2′H-spiro[cyclohexane-1,3′-imidazo[1,5-a]pyridine]-1′,5′-dione], the IC50 (in general, the point on the concentration scale where inhibition reaches its midpoint) came to 0.0007 µM.
For `Cc1cc(Nc2ncnc3[nH]cnc23)c(=O)n2c1C(=O)NC2(C)C` [Example 134, 3,3,8-Trimethyl-6-(9H-purin-6-ylamino)-2,3-dihydroimidazo[1,5-a]pyridine-1,5-dione] the value was 0.0058 µM; for `Cc1cc(Nc2ncnc3c2ncn3[C@H]2O[C@@H](CO)[C@H](O)[C@H]2O)c(=O)n2c1C(=O)NC21CCCCC1` [Example 47, N-[9-(beta-L-Arabinofuranosyl)-9H-purin-6-yl]-8′-methyl-1′,5′-dioxo-1′,5′-dihydro-2′H-spiro[cyclohexane-1,3′-imidazo[1,5-a]pyridin]-6′-amine], 0.0472 µM.
Next, `Cc1cc(Nc2ncnc3sc(C(=O)N(C)C)cc23)c(=O)n2c1C(=O)NC21CCCCC1` [Example 10, N,N-Dimethyl-4-[(8′-methyl-1′,5′-dioxo-1′,5′-dihydro-2′H-spiro[cyclohexane-1,3′-imidazo[1,5-a]pyridin]-6′-yl)amino]thieno[2,3-d]pyrimidine-6-carboxamide]: 0.0171 µM; `Cc1cc(Nc2ncnc3[nH]ccc23)c(=O)n2c1C(=O)N[C@]21CC[C@@](O)(C(F)(F)C(F)(F)F)CC1` [Example 194, (cis)-4-hydroxy-8′-methyl-4-(pentafluoroethyl)-6′-[(7H-pyrrolo[2,3-d]pyrimidin-4-yl)amino]-2′H-spiro[cyclohexane-1,3′-imidazo[1,5-a]pyridine]-1′,5′-dione]: 0.0122 µM.
Next, `Cc1cc(Nc2ncnc(N)n2)c(=O)n2c1C(=O)N[C@]21CC[C@@](O)(C(F)(F)F)CC1` [Example 190, (cis)-6′-[(4-amino-1,3,5-triazin-2-yl)amino]-4-hydroxy-8′-methyl-4-(trifluoromethyl)-2′H-spiro[cyclohexane-1,3′-imidazo[1,5-a]pyridine]-1′,5′-dione]: 0.0314 µM.
In turn, `Cc1cc(Nc2ncnc3c2ncn3CC(=O)N(C)C)c(=O)n2c1C(=O)NC21CCCCC1` [Example 49, N,N-Dimethyl-2-{6-[(8′-methyl-1′,5′-dioxo-1′,5′-dihydro-2′H-spiro[cyclohexane-1,3′-imidazo[1,5-a]pyridin]-6′-yl)amino]-9H-purin-9-yl}acetamide] displayed an IC50 of 0.49 µM.
Next, `Cc1cc(Nc2ncnc3sc(C(=O)O)c(C)c23)c(=O)n2c1C(=O)NC21CCCCC1` [Example 15, 5-Methyl-4-[(8′-methyl-1′,5′-dioxo-1′,5′-dihydro-2′H-spiro[cyclohexane-1,3′-imidazo[1,5-a]pyridin]-6′-yl)amino]thieno[2,3-d]pyrimidine-6-carboxylic acid]: 0.0213 µM; `Cc1cc(Nc2ncnc3cccc(C)c23)c(=O)n2c1C(=O)NC21CCCC1` [Example 183, 8′-methyl-6′-[(5-methylquinazolin-4-yl)amino]-2′H-spiro[cyclopentane-1,3′-imidazo[1,5-a]pyridine]-1′,5′-dione]: 0.013 µM.
Compound `Cc1cc(Nc2ncnc3cccc(C)c23)c(=O)n2c1C(=O)NC21CCC1` [Example 170, 8′-methyl-6′-[(5-methylquinazolin-4-yl)amino]-2′H-spiro[cyclobutane-1,3′-imidazo[1,5-a]pyridine]-1′,5′-dione] returned an IC50 of 0.0053 µM.
For `Cc1cc(Nc2ncnc3sccc23)c(=O)n2c1C(=O)NC21CCC(O)(C(F)(F)F)CC1` (stereo not drawn) [Example 130, 4-Hydroxy-8′-methyl-6′-(thieno[2,3-d]pyrimidin-4-ylamino)-4-(trifluoromethyl)-2′H-spiro[cyclohexane-1,3′-imidazo[1,5-a]pyridine]-1′,5′-dione] the value was 0.0079 µM.
